Measurements as given in patent EP1169044B1, “USE OF FUCOSYLATED SIALYLATED N-ACETYL LACTOSAMINE CARBOHYDRATE STRUCTURES FOR INHIBITION OF BACTERIAL ADHERENCE” (Borén, Thomas, priority 1999, dated 2000).

Columns and labels:
H. pylori strains = assay: radio immuno analysis (RIA) with 125I-labelled neoglycoconjugates; format: binding, Helicobacter pylori; conditions: strains of Fig. 4 (BabA2 mutant, babA1A2 mutant, CCUG 17875, CCUG 17874), 400 ng conjugate, 30 min
Method: Bars, from the left to the right; The sialyl-alfa2.61actose-, sialyl-alfa2.31actose-, sialyl-Lewis a-, sialyl-Lewis x-, and Lewis b-, synthesised sialyl-Lewis x- sialyl-acetyllactosaminee, both with a either a 3 carbon or 14 carbon (extended/hydrophilic) spacer, conjugated to albumin, Finally, the histo-blood group antigen Lewis y (synthesised penta-saccharide) (V. Behar and S.J. Danishefsky, Angew. Chem. Int. Ed. Engi, 1994, 33, no. 14, 1468.), was analysed as a neo-glycoconjugate.
(§1) The sialyl-alfa2.3lactose-, sialyl-alfa2.61actose-, sialyl-Lewis a-, and Lewis b-oligosaccharide antigens used for neoglycoconjugate preparations were purified by HPLC, structurally identified and characterized with NMR-spectroscopy, and more than 95% pure. These conjugates were attached to albumin with an APD (acetylphenylenediamine) spacer attached to the carbohydrate by reductive animation and thus the terminal reducing monosaccharide unit of the oligosaccharide is reduced and is present as an aminoalditol, IsoSep AB, Tullinge, Sweden (T. Borén, P. Falk, K. A. Roth, G. Larson, and S. Normark, Science. 262, 1892 (1993), P. D. Rye, Nature Biotechnology 2, 155 (1996)). The synthesised sialyl-Lewis x- tetrasaccharide antigen was conjugated to albumin with the MPE (mercaptopropionyl-amidoethyl) -spacer, IsoSep AB. Synthesised sialyl-Lewis x-tetrasaccharide and sialyl-acetyllactosaminee, both with a either a 3 carbon or 14 carbon (extended/hydrophilic) spacer, conjugated to albumin, were obtained from Dextra Laboratories, Reading, UK. The RIA (Fig. 4) was performed according to (P. Falk, T. Borén, D. Haslam, M. G. Caparon, Meth. Cell Biol. 45, 161 (1994)) with minor modifications; the glycoconjugates were ^125I-labelled by the Chloramine T method. 1 ml of bacteria (A600= OD 0.10) was incubated with 400 ng of ^125I-labelled conjugate (that is an excess of receptor substrate) for 30 min. in phosphate buffered saline (PBS), 0.5 % albumin, 0.05 % Tween-20 (BB-buffer). After centrifugation, the ^125I-activity bound to the bacterial pellet was measured by gamma scintillation counting. Binding experiments were reproducible and performed in triplets. In addition, the level of binding-activity within the strain was stabile.

babA1A2-mutant = assay: Scatchard affinity analysis with sialylated conjugates; format: binding, Helicobacter pylori
Excerpt: as §1, with “1 ml of bacteria (A600= OD 0.10) was incubated with 400 ng of ^125I-labelled conjugate (that is an excess of receptor substrate) for 30 min. in phosphate buffered saline (PBS), 0.5 % albumin, 0.05 % Tween-20 (BB-buffer).” left out, “Binding experiments were reproducible and performed in triplets. In addition, the level of binding-activity within the strain was stabile.” left out

[1] = test system: Helicobacter pylori strain CCUG 17875; assay: thin-layer chromatogram binding assay (radiolabelled bacteria overlaid on separated glycosphingolipids); conditions: glycosphingolipids on thin-layer chromatograms, autoradiogram
Method: (§2) The glycosphingolipids were separated and (A) visualised with anisaldehyde. Duplicate chromatograms were incubated with monoclonal (B) anti-sialyl-Lewis x, (C) anti-sialyl-Lewis a, and radiolabelled H. pylori (D) strain CCUG 17875, (E) the BabA1A2 mutant strain, and (F) strain CCUG 17874. Autoradiography was for 12 hr. The lanes contained: 1, Acid glycosphingolipids of calf brain, 40 µg; 2, Acid glycosphingolipids of human neutrophil granulocytes, 40 µg; 3, Acid glycosphingolipids of human neutrophil granulocytes after de-sialylation, 40 µg; 4, Acid glycosphingolipids of human gall bladder adenocarcinoma, 40 µg; 5, Acid glycosphingolipids of human gall bladder adenocarcinoma after de-sialylation, 40 µg; 6, NeuAcα3Galβ4(Fucα3)GlcNAcβ3Galβ4(Fucα3)GlcNAcβ3Galβ4Glcβ1Cer isolated from human gall bladder adenocarcinoma, 1 µg; 7, NeuAcα3Galβ3(Fucα4)GlcNAcβ3Galβ4Glcβ1-Cer (sialyl-Lewis a hexaglycosylceramide) isolated from human gall bladder adenocarcinoma, 4 µg; 8, NeuAcα3Galβ4(Fucα3)GlcNAcβ3Galβ4Glcβ1Cer (sialyl-Lewis x hexaglycosyl-ceramide), 4 µg; 9, Fucα2Galβ3(Fucα4)GlcNAcβ3Galβ4Glcβ1Cer (Lewis b-6 hexaglycosylceramide) of human small intestine, 4 µg.
(§3) Culture and ^35S-labelling of H. pylori was as outlined in (Ångström, J., Teneberg, S., Abul Milh, M,. Larsson, T., Leonardsson, I., Olsson, B.-M., Ölwegård Halvarsson, M., Danielsson, D., and Karlsson, K.-A. (1998). The lactosylceramide binding specificity of Helicobacter pylori. Glycobiology 8, 297-309.). Mixtures of glycosphingolipids (20-40 µg/lane) or pure compounds (0.002-4 µg/lane) were separated on aluminium-backed silica gel 60 HPTLC plates (Merck), using chloroform:methanol:water 60:35:8 (v/v/v) as solvent system. Chemical detection was done with anisaldehyde (Waldi, D. (1962) Sprühreagentien für die dünnschicht-chromatographie. In Dünnschicht-Chromatographie, E. Stahl ed. (Berlin: Springer-Verlag) pp. 496-51).
(§4) Binding of radiolabelled H. pylori to glycosphingolipids on thin-layer chromatograms was performed as described above (Ångström et al., 1998) using suspensions of bacteria diluted in phosphate-buffered saline (PBS), pH 7.3, to 1x10^8 CFU/ml. The specific activities of the suspensions were approximately 1 CPM per 100 H. pylori organisms. Binding of monoclonal antibodies was done as described (Magnani, J.L., Brockhaus, M., Smith, D.F., Ginsburg, V., Blaszczyk, M., Mitchell, K.F., Steplewski, Z., and Koprowski, H. (1981). A monosialoganglioside is a monoclonal antibody-defined antigen of colon-carcinoma. Science 212, 55-56). Anti-sialyl-Lewis x monoclonal antibodies (clone KM-93) were from Seikagaku Corp., Tokyo, Japan and anti-sialyl-Lewis a monoclonal antibodies (CA 19-9) from Signet Laboratories, Inc., Dedham, MA 02026, USA.
(§5) Screening of potential receptor structures unique for thebabA1/babA2-mutant was performed by adherence experiments to well-defined panels of MS-characterized glycolipids, from defined and unique sources and tissues. Binding of H. pylori and monoclonal antibodies to glycosphingo-lipids was evaluated using the thin-layer chromatogram binding assay (J. Ångström et al., Glycobiology 8, 297 (1998); J. M. McKibbin et al., J. Biol. Chem. 257,755 (1982)), i.e., glyco-lipids were separated on HPTLC-plates, and H. pylori CCUG 17875 wild type bacteria and the babA1/babA2-mutant were overlaid on the plates and binding of radio labelled bacterial cells was detected. (See Experimental procedures).

[2] = test system: strain CCUG 17874, the BabA2 mutant and the BabA1A2 mutant; assay: as above; parameters: species or system Helicobacter pylori; conditions: for binding to glycosphingolipids on thin-layer chromatograms (in words): CCUG 17874, babA2 mutant, babA1A2 mutant; for Binding obtained with strain CCUG 17874, the babA2 mutant and the babA1A2 mutant: glycosphingolipids on thin-layer chromatograms, autoradiogram
Method: as §2, §3, §4, §5

Compound	binding of 125I-labelled neoglycoconjugate (in words) (H. pylori strains)	Binding obtained with strain CCUG 17875 ([1]; Table 1)	Binding obtained with strain CCUG 17875 ([1]; Table 2)	Binding obtained with strain CCUG 17874, the babA2 mutant and the babA1A2 mutant ([2]; Table 1)	Binding obtained with strain CCUG 17874, the babA2 mutant and the babA1A2 mutant ([2]; Table 2)	also measured
CC(=O)N[C@H]1[C@H]([C@H](O)[C@H](O)CO)O[C@@](O[C@H]2[C@@H](O)[C@@H](CO)O[C@@H](O[C@H]3[C@H](O)[C@@H](O)C(O)O[C@@H]3CO)[C@@H]2O)(C(=O)O)C[C@@H]1O (some centres unmarked) [sialyl-alfa2.31actose antigen, Neu5Acα3Galβ4Glc]	Poor binding					fold lower affinity (babA1A2-mutant; compared with the fucosylated sialyl-Lewis x structures): 20 fold; Kd (babA1A2-mutant; read-out: affinity according to Scatchard): 100 nM
CC(=O)NC1C(O)CC(OCC2OC(OC3C(CO)OC(O)C(O)C3O)C(O)C(O)C2O)(C(=O)O)OC1C(O)C(O)CO (centres unmarked) [sialyl-alfa2.61actose antigen, Neu5Acα6Galβ4Glc]	Poor binding					binding of 125I-labelled neoglycoconjugate (in words) (H. pylori strains; listed as sialyl-alfa 2,6 lactose conjugate): did not demonstrate any binding activity
Fucα2Galβ3(Fucα4)GlcNAcβ3Galβ4Glcβ1Cer [Le^b-6]		+^3 (+ denotes a darkening at 2 nmol)	+3 (+3 denotes a significant darkening on the autoradiogram when 1 pmol of structure was applied on the thin-layer plate)	- (- denotes no darkening even at 2 nmol)	- (– denotes no darkening even at 2 nmol)	binding to glycosphingolipids on thin-layer chromatograms (in words) [2]: did not recognize
Galβ3GalNAcβ4(NeuAcα3)Galβ4Glcβ1Cer [GM1]		- (- denotes no darkening even at 2 nmol)	- (– denotes no darkening even at 2 nmol)	- (- denotes no darkening even at 2 nmol)	- (– denotes no darkening even at 2 nmol)	
Galβ3GalNAcβ4(NeuAcα8NeuAcα3)Galβ4Glcβ1Cer [GD1b]		- (- denotes no darkening even at 2 nmol)	- (– denotes no darkening even at 2 nmol)	- (- denotes no darkening even at 2 nmol)	- (– denotes no darkening even at 2 nmol)	
Neu5Acα3Galβ4GlcNAc [alfa2.31actoseamine with a 14 carbon spacer]	rather efficient binding					
Neu5Acα3Galβ4GlcNAc [equivalent structure linked by a shorter, 3 carbon spacer]	much reduced in binding					
NeuAcα3Galβ3(Fucα4)GlcNAcβ3Galβ4Glcβ1Cer [S-Le^a]			- (– denotes no darkening even at 2 nmol)		- (– denotes no darkening even at 2 nmol)	binding to glycosphingolipids on thin-layer chromatograms (in words) [2]: almost no binding
NeuAcα3Galβ3GalNAcβ4(NeuAcα3)Galβ4Glcβ1Cer [GD1a]		- (- denotes no darkening even at 2 nmol)	- (– denotes no darkening even at 2 nmol)	- (- denotes no darkening even at 2 nmol)	- (– denotes no darkening even at 2 nmol)	
NeuAcα3Galβ4(Fucα3)GlcNAcβ3Galβ4(Fucα3)GlcNAcβ3Galβ4Glcβ1Cer		- (- denotes no darkening even at 2 nmol)	- (– denotes no darkening even at 2 nmol)	+++ (+++ denotes a significant darkening on the autoradiogram when 1 pmol was applied on the thin-layer plate)	+3 (+3 denotes a significant darkening on the autoradiogram when 1 pmol of structure was applied on the thin-layer plate)	detection level ([2]; binding on thin-layer chromatogram): approximately 1 pmol
NeuAcα3Galβ4(Fucα3)GlcNAcβ3Galβ4Glcβ1Cer [S-Le^x]						binding to glycosphingolipids on thin-layer chromatograms (in words) [2]: weak binding; amount required for binding ([2]; weak, occasionally observed binding on thin-layer chromatogram): 2 nmol
NeuAcα3Galβ4Glcβ1Cer [GM3]		- (- denotes no darkening even at 2 nmol)	- (– denotes no darkening even at 2 nmol)	- (- denotes no darkening even at 2 nmol)	- (– denotes no darkening even at 2 nmol)	
